Measurements reported in ChEMBL document CHEMBL3751691, “A Journey around the Medicinal Chemistry of Hepatitis C Virus Inhibitors Targeting NS4B: From Target to Preclinical Drug Candidates” (J Med Chem, 2016).
pEC50, pIC50, pKd, pKi: −log10 of the molar value. Each block holds one molecule with its values, some of them ahead of it.

Columns and labels:
Hepatitis C virus [1] = experiment: Antiviral activity against HCV genotype 1a (H77) infected in human Huh7 cells assessed as inhibition of viral replication by luciferase reporter-based viral replicon assay; type: functional, organism-based, Hepacivirus hominis; details: genotype 1a H77, Huh-7
Hepatitis C virus [2] = experiment: Antiviral activity against HCV genotype 1b infected in human Huh7 cells assessed as inhibition of viral replication by luciferase reporter-based viral replicon assay; type: functional, organism-based, Hepacivirus hominis; details: Huh-7
[3] = Binding affinity to HCV NS4B […] by quantitative PCR analysis; set-up: species or system Hepacivirus hominis
[4] = Cytotoxicity against human HuH7 cells by Cell Titer-Glo assay; type: cell-based, Huh-7
[5] = Binding affinity to […] by fluorescence assay; set-up: species or system Hepacivirus hominis
Hepatitis C virus [6] = experiment: Antiviral activity against HCV genotype 1b infected in human Huh7 cells assessed as inhibition of viral replication after 72 hrs by ELISA; type: functional, organism-based, Hepacivirus hominis; details: Huh-7, 72 h
Hepatitis C virus [7] = experiment: Antiviral activity against HCV genotype 1b infected in Huh7.5 cells assessed as inhibition of viral replication at 72 hrs by luciferase reporter-based viral replicon assay; type: functional, organism-based, Hepacivirus hominis; details: Huh7.5, 72 h
[8] = Inhibition of HCV NS3/4A protease; set-up: species or system Hepacivirus hominis
Hepatitis C virus [9] = experiment: Antiviral activity against HCV genotype 2a infected in Huh7.5 cells assessed as inhibition of viral replication at 72 hrs by luciferase reporter-based viral replicon assay; type: functional, organism-based, Hepacivirus hominis; details: Huh7.5, 72 h
[10] = Inhibition of HCV GST-tagged recombinant NS3/4A protease expressed in Escherichia coli by microfluidic affinity assay; set-up: species or system Hepacivirus hominis

- pEC50 (Hepatitis C virus [1]): 5.66
- pEC50 (Hepatitis C virus [2]): 6.76
- pKd [3]: 7.28
Compound: O=C(c1ccccc1)N1CCC2(CCCN(c3ncc(Br)c(-c4ccc(Cl)cc4)n3)C2)CC1
- CC50 [4]: 38.7 µM

- pKd [5]: 5.68
- pEC50 (Hepatitis C virus [6]): 5.66
Compound: Cc1nccn1-c1nc(-c2ccc(Cl)cc2)cc(C(F)(F)F)n1

- pKd [5]: 6.00
- pEC50 (Hepatitis C virus [6]): 5.49
Compound: CC(=O)c1ccc(NC(=O)c2cc3c(C)nn(-c4ccccc4)c3s2)cc1

- EC90 (Hepatitis C virus [2]): 2.6 µM
Compound: CC(C)C[C@H]1CN(C(=O)c2cc(-c3ccc([N+](=O)[O-])cc3)on2)[C@@H](CC(C)C)C(=O)N1

- pEC50 (Hepatitis C virus [7]): 5.48
Compound: C[C@H]1CCCN1CCCOc1nn(Cc2ccc(Cl)cc2)c2ccc(-c3ccc(N4CCOCC4)nc3)cc12

- EC90 (Hepatitis C virus [2]): > 10 µM
Compound: CC(C)C[C@H]1CN(C(=O)c2coc(-c3ccccc3)n2)[C@@H](CC(C)C)C(=O)N1

- pKi [8]: 7.85
Compound: CC(C)(C)NC(=O)N[C@H](C(=O)N1C[C@H]2[C@@H]([C@H]1C(=O)NC(CC1CCC1)C(=O)C(N)=O)C2(C)C)C(C)(C)C (some centres undefined) [BOCEPREVIR]

- EC90 (Hepatitis C virus [2]): 0.29 µM
Compound: CC(C)C[C@H]1CN(C(=O)c2cc(-c3ccc(Cl)cc3)on2)[C@@H](CC(C)C)C(=O)N1

- EC90 (Hepatitis C virus [2]): 0.9 µM
Compound: CCC[C@H]1CN(C(=O)[C@@H]2C[C@H]2c2ccccc2)[C@@H](CC(C)C)C(=O)N1

- EC90 (Hepatitis C virus [2]): > 10 µM
Compound: CC(C)C[C@H]1CN(C(=O)[C@@H]2C[C@H]2c2ccccc2)[C@@H](CC(C)C)CN1

- EC90 (Hepatitis C virus [2]): > 10 µM
Compound: CC(C)C[C@H]1C(=O)N[C@@H](CO)CN1C(=O)c1cc(-c2ccc(F)cc2)on1

- pKd [5]: 6.52
- pEC50 (Hepatitis C virus [6]): 6.06
Compound: CC(C)(C)c1ccc(C(=O)Nc2sc3c(c2C(N)=O)CCCC3)cc1

- EC90 (Hepatitis C virus [2]): 0.09 µM
Compound: CC(C)C[C@H]1C(=O)N[C@@H](C2CCCC2)CN1C(=O)c1cc(-c2ccc(F)cc2)on1

- EC90 (Hepatitis C virus [2]): > 10 µM
Compound: CC[C@H](C)[C@H]1CN(C(=O)[C@@H]2C[C@H]2c2ccccc2)[C@@H](CC(C)C)C(=O)N1

- EC90 (Hepatitis C virus [2]): 8.8 µM
Compound: CC(C)C[C@H]1CN(C(=O)[C@@H]2C[C@H]2c2ccccc2)[C@@H](CC(C)C)C(=O)N1C

- EC90 (Hepatitis C virus [2]): 1.5 µM
Compound: CC(C)C[C@H]1CN(C(=O)/C=C/c2ccc(F)cc2)[C@@H](CC(C)C)C(=O)N1

- EC90 (Hepatitis C virus [2]): > 10 µM
Compound: CC(C)C[C@H]1CN(C(=O)/C=C\c2ccccc2)[C@@H](CC(C)C)C(=O)N1

- EC90 (Hepatitis C virus [2]): > 10 µM
Compound: COC[C@H]1CN(C(=O)c2cc(-c3ccc(F)cc3)on2)[C@@H](CC(C)C)C(=O)N1

- pEC50 (Hepatitis C virus [7]): 5.74
Compound: Clc1ccc(Cn2c(/C=C/C3CCN(CC4CCCCC4)C3)nc3cc(Br)ccc32)cc1 (centres undefined)

- EC90 (Hepatitis C virus [2]): 0.06 µM
Compound: C/C=C/[C@H]1CN(C(=O)c2cc(-c3ccc(F)cc3)on2)[C@@H](CC(C)C)C(=O)N1

- EC90 (Hepatitis C virus [2]): > 10 µM
Compound: CC(C)C[C@H]1CN(C(=O)C2CC2)[C@@H](CC(C)C)C(=O)N1

- pKd [5]: 5.77
- pEC50 (Hepatitis C virus [6]): 5.82
Compound: COc1ccc(Cl)cc1Nc1nc(-c2cccnc2)cs1

- pEC50 (Hepatitis C virus [7]): 4.64
- pEC50 (Hepatitis C virus [9]): 5.10
- pIC50 [10]: 7.62
Compound: Clc1ccc(Cn2c(CN3CCCC3)nc3ccccc32)cc1 [CLEMIZOLE]

- EC90 (Hepatitis C virus [2]): > 10 µM
Compound: CC[C@H](C)[C@H]1CN(C(=O)c2cc(-c3ccc(F)cc3)on2)[C@@H](CC(C)C)C(=O)N1

- EC90 (Hepatitis C virus [2]): > 10 µM
Compound: CC[C@H]1C(=O)N[C@@H](CC(C)C)CN1C(=O)[C@@H]1C[C@H]1c1ccccc1
